pEC50, pIC50: −log10 of the molar value. ≈ marks a conversion by molar mass, not a printed value. Entries after “also recorded” stand apart in the source; their conditions may differ. Like-named read-outs stand apart in the source and are kept apart here.
Legend:
L. monocytogenes [1] = assay: Bacterial growth curve in BHI broth culture; assay type: cell-based, Listeria monocytogenes 10403S; conditions: 5 µM in BHI broth; for effect on Listeria growth in broth culture: absence of host cells, up to 8 h
Method: For bacterial growth curve in broth culture, an overnight culture of L. monocytogenes was back-diluted 1∶50 into BHI broth in the presence of 5 µM of compounds 1 to 4, 2.5 µM of compound 9 or equivalent volume of DMSO and incubated statically at 30°C for up to 8 h. At indicated time points (0, 2, 4, 6 and 8 h), a 50 µl-aliquot of bacteria was serially diluted and plated on LB agar to determine the number of CFU. To test the bactericidal properties of compound 9, an overnight culture of L. monocytogenes was back-diluted 1∶50 into BHI broth and allowed to grow at 37°C with shaking until an optical density at 600 nm (OD600) of ∼0.6–0.7 was obtained. Bacteria were then exposed to 1, 2.5 or 5 µM of compound 9 or equivalent volume of DMSO for 2 h at 4°C. After incubation, bacteria were serially diluted and plated on LB agar to determine CFU.

L. monocytogenes [2] = assay: L. monocytogenes intracellular growth assay in RAW264.7 macrophages; assay type: cell-based, Listeria monocytogenes 10403S; design: decrease in Listeria intracellular viability: concentration or dose not given beside the values; conditions: for pEC50: Listeria monocytogenes, RAW264.7 pre-treated with varying concentrations, then infected (MOI 1), intracellular CFU at 8 h post-infection, non-linear regression; for decrease in Listeria intracellular viability: RAW264.7 pre-treated at each compound's working condition (Fig. 2B, 5B); for decrease in Listeria intracellular viability / effect on L.m. intracellular growth (in words) / Decrease intracellular listeria viability (%): 8 h post-infection; for decrease in Listeria intracellular viability / Decrease intracellular listeria viability (%): vs DMSO; for effect on L.m. intracellular growth (in words): RAW264.7 pre-treated with compound; for Decrease intracellular listeria viability (%): conditions of Figure 2B and Figure 5B, maximal effective drug concentration used
Method: RAW264.7 cells were cultured at an initial density of 4×10^6 cells per 24-well plate and allowed to adhere overnight. Macrophages were treated with 2.5 or 5 µM of DUB inhibitors dissolved in dimethyl sulfoxide (DMSO) for 0.5 or 1 h or with equivalent volume of DMSO (vehicle control) at 37°C. For dose-response curves, macrophages were incubated with 5, 2.5, 1 and 0.5 µM of compounds 1, 3 and 4 or 2.5, 2, 1 and 0.5 µM of compounds 2 and 9 for 0.5 h or 1 h at 37°C. DUB inhibitors were removed from cell culture prior to infection by changing the medium. Macrophages were infected with L. monocytogenes at a multiplicity of infection (MOI) of 1 for 0.5 h at 37°C. The inoculum was removed by washing infected cells three times with Dulbecco’s phosphate-buffered saline (PBS), and the cells were incubated in medium containing 10 µg/ml of gentamicin to kill extracellular bacteria for the duration of the experiment. At 8 h post-infection, cells were lysed in 1 ml 0.1% Triton X-100, serially diluted and plated on Luria-Bertani (LB) agar to enumerate the number of colony forming units (CFU). CFU were counted using the Acolyte SuperCount (Microbiology International, Frederick, MD) plate reader and software. Results were normalized to DMSO-treated cells.
Supplementary file pone.0104096.s001.tif: Figure S1 Dose-response curves for selected compounds. RAW264.7 cells were incubated with DMSO (equivalent volume) or the varying concentrations of WP1130-derivatives for 0.5 h (compounds 1, 2, 4 and 9) or 1 h (compound 3). After incubation, the medium was removed, and cells were infected at 37°C for 0.5 h at an MOI of 1 with L. monocytogenes in the absence of additional drugs. Following the 0.5 h infection, cells were washed and gentamycin (10 µg/ml) was added to kill extracellular bacteria. Intracellular bacteria were enumerated at 8 h post-infection. The data represent percent of Listeria intracellular growth compared to DMSO-treated cells from three independent experiments performed in triplicate. Non-linear regression curves were performed using the GraphPad Prism software. (TIF) Click here for additional data file.

RAW264.7 cells = assay: WST-1 cell viability assay, conditions mimicking the bacterial infection protocol; assay type: cell-based, murine; conditions: then 8 h
Method: For cell viability assays in conditions that mimicked the bacterial infection protocol, RAW264.7 cells were cultured at an initial density of 4×10^6 cells per 96-well plate. Cells were treated with 2.5 or 5 µM DUB inhibitors dissolved in DMSO for 0.5 h or 1 h or with equivalent volume of DMSO. DUB inhibitors were removed after treatment by washing three times with PBS, and cells were incubated in culture media for 6.5 h at 37°C. The WST-1 reagent (Roche, San Francisco, CA), which measures mitochondrial dehydrogenase activity, was diluted 1 in 10 in media and cells were incubated at 37°C for an additional 1.5 h. The optical density at 440 nm (OD440) and 600 nm (OD600) was determined and results were normalized to DMSO-treated cells.

USP9x = test system: USP9x; design: method as in Donato, N. J., manuscript in preparation; conditions: cell-based assay; ref Donato, N. J., manuscript in preparation; read-out: IC50 against USP9x; cited from earlier work
L. monocytogenes [3] = test system: L. monocytogenes; design: method as in PMID 21911458; conditions: absence of host cells; cited from earlier work
MNV-1 = test system: MNV-1; design: method as in PMID 22792064; conditions: pre-treatment of RAW264.7 cells; cited from earlier work
[4] = Aqueous kinetic solubility; assay type: physicochemical; conditions: aqueous (not further specified)

SMILES | effect on Listeria growth in broth culture (L. monocytogenes [1]) | pEC50 (L. monocytogenes [2]) | decrease in Listeria intracellular viability (L. monocytogenes [2]) [%] | effect on L.m. intracellular growth (in words) (L. monocytogenes [2]) | Decrease intracellular listeria viability (%) (L. monocytogenes [2]) | cellular toxicity (WST-1 viability) (RAW264.7 cells; 5 µM, 1 h pre-treatment) | also measured
CCC[C@H](NC(=O)/C(C#N)=C/c1cccc(Cl)n1)c1ccccc1 [Compound 1] | slight decrease in growth rate | 5.96 | 54.7 | Decrease L.m. intracellular growth | 54.7 |  | effect on total CFU per ml by 8 h in broth culture (L. monocytogenes [1]): without affecting the total number of colony forming unit (CFU) per ml by 8 h
CCC[C@@H](NC(=O)/C(C#N)=C/c1cccc(Br)n1)c1ccccc1 [Compound 2] | slight decrease in growth rate | 5.75 | 44 | Decrease L.m. intracellular growth | 44.0 |  | effect on total CFU per ml by 8 h in broth culture (L. monocytogenes [1]): without affecting the total number of colony forming unit (CFU) per ml by 8 h; cellular toxicity (WST-1 viability) (RAW264.7 cells; pre-treatment 0.5 or 1 h, led to working concentration of 2.5 µM for 0.5 h): slight increase in toxicity
CCCC(NC(=O)/C(C#N)=C/c1cccc(Br)n1)c1ccc(OCOC)cc1 (centres unmarked) [Compound 3] | slight decrease in the in vitro growth |  | 39.9 | Decrease L.m. intracellular growth | 39.9 | no significant toxicity | 
CCC[C@H](NC(=O)/C(C#N)=C/c1cccc(F)n1)c1ccccc1 [Compound 4] | no effect | 5.54 | 29.2 | Decrease L.m. intracellular growth | 29.2 |  | 
CCC(NC(=O)/C(C#N)=C/c1cccc(Br)n1)c1ccc(O)cc1 (centres unmarked) [Compound 5] |  |  | 25.4 | Decrease L.m. intracellular growth |  | no significant toxicity | 
CCCC(NC(=O)/C(C#N)=C/c1cccc(F)n1)c1ccc(OCCN2CCOCC2)cc1 (centres unmarked) [Compound 6] |  |  |  | No effect on L.m. intracellular growth |  | no significant toxicity | effect on L.m. intracellular growth (in words) (L. monocytogenes [2]; listed as compound 6): no significant effect on Listeria intracellular growth; also recorded: complete loss of activity
CCCC(NC(=O)/C(C#N)=C/c1cccnc1F)c1ccc(OCCN2CCOCC2)cc1 (centres unmarked) [Compound 7] |  |  |  | No effect on L.m. intracellular growth |  | no significant toxicity | effect on L.m. intracellular growth (in words) (L. monocytogenes [2]; listed as compound 7): no significant effect on Listeria intracellular growth; also recorded: complete loss of activity
CCC[C@H](NC(=O)/C=C/c1cccc(Br)n1)c1ccccc1 [Compound 8] |  |  |  | No effect on L.m. intracellular growth |  | no significant toxicity | effect on L.m. intracellular growth (in words) (L. monocytogenes [2]; listed as compound 8): no significant effect on Listeria intracellular growth; also recorded: no activity
CCC[C@H](NC(=O)/C(C#N)=C/c1cccc(Br)n1)c1ccccc1 [WP1130, reference compound] |  |  | 69.9 | Decrease L.m. intracellular growth |  |  | pIC50 (USP9x): 5.18; effect on Listeria growth in broth culture (L. monocytogenes [3]): no effect; average decrease in MNV-1 titers compared to DMSO vehicle control (MNV-1): 2.0 log; solubility kinetic [4]: 3.2 µM (≈ 1.23 µg/mL)

Reference: PMC4122495, “Small Molecule Deubiquitinase Inhibitors Promote Macrophage Anti-Infective Capacity” (PLoS ONE, 2014)
